Values quoted from earlier work in patent publication EP1204793B1, “STABLE SILICONE OIL EMULSION COMPOSITION, ARTICLE OF MANUFACTURE, AND METHOD OF FABRIC WRINKLE CONTROL” (THE PROCTER & GAMBLE COMPANY, priority 1999, dated 2001).
Where a name gives a salt, the structure may show the parent alone.

**Q.** For `[H]/N=C(\N/C(=N/[H])NCCCCCCNC(=N)NC(=N)Nc1ccc(Cl)cc1)Nc1ccc(Cl)cc1` [diacetate salt, 1,1'-hexamethylene bis(5-(p-chlorophenyl)biguanide)], which solubility in water is on record?
**A.** The solubility in water was “about 1.8%”.

**Q.** Which solubility in water does the source give for `[H]/N=C(\N/C(=N/[H])NCCCCCCNC(=N)NC(=N)Nc1ccc(Cl)cc1)Nc1ccc(Cl)cc1` [digluconate salt, 1,1'-hexamethylene bis(5-(p-chlorophenyl)biguanide)] here?
**A.** Its solubility in water is “about 70%”.
